Measurements taken from paper PMC3884022 (Journal of Hematology & Oncology, 2014).

Assays:
advanced solid tumors = assay: Phase 1 combination study: tumor response (RECIST); assay type: in vivo, human
Protocol: Circulating nucleic acids were analyzed for PIK3CA (exons 9 and 20), KRAS (exons 2 and 3), and BRAF (exons 11 and 15) mutations. DNA extracted from whole blood samples was subjected to real-time quantitative polymerase chain reaction and spectrophotometric analysis as part of the quality control process, as previously described. Mutation screening was performed using Surveyor Nuclease (Transgenomic, Inc., Nebraska, USA). Radiologic assessment (computed tomography [CT] and/or magnetic resonance imaging [MRI] scans) of disease status was performed at baseline and every 6 weeks according to Response Evaluation Criteria in Solid Tumors (v1.0).

AKT3 = tested on: AKT3; parameters: method as in earlier work; settings: cited from earlier work
[1] = tested on: PC-3 prostate and NCI-H462 tumor xenografts; settings: with docetaxel, carboplatin, and gemcitabine; cited from earlier work

NC1(c2ccc(-c3nc4ccn5c(=O)[nH]nc5c4cc3-c3ccccc3)cc2)CCC1 [MK-2206]
duration of SD (advanced solid tumors; 1 metastatic breast cancer patient harboring a PIK3CA mutation (exon 20)): 4 months
duration of PR, range (advanced solid tumors; arm 1): 2–21 months
median duration of PR (advanced solid tumors; arm 1): 11 months
confirmed partial responses, patients (advanced solid tumors; arm 1, QOD and Q3W schedules, melanoma, neuroendocrine prostate, endometrial, cervical): 4
duration of unconfirmed PR (advanced solid tumors; arm 1, SCC of the head and neck (n = 1)): 2 month
unconfirmed PRs, patients (advanced solid tumors; arm 1, SCC of the head and neck, and gastric): 2 patients
duration of confirmed PR (advanced solid tumors; arm 1, cervical (n = 1)): 6 month
duration of confirmed PR (advanced solid tumors; arm 1, endometrial (n = 1)): 4 month
duration of unconfirmed PR (advanced solid tumors; arm 1, gastric (n = 1)): 2 month
duration of confirmed PR (advanced solid tumors; arm 1, melanoma (n = 1)): 21 month
duration of confirmed PR (advanced solid tumors; arm 1, neuroendocrine prostate (n = 1)): 6 month
complete response, patients (advanced solid tumors; arm 1 carboplatin and paclitaxel, squamous cell carcinoma (SCC) of the orbit, 24 evaluable): 1 patient
duration of PR (advanced solid tumors; arm 2, MK-2206 200 mg with docetaxel, NSCLC patient): 6 months
confirmed PR, patients (advanced solid tumors; arm 2, Q3W MK-2206 and docetaxel, NSCLC): One
objective responses (advanced solid tumors; arm 3 erlotinib): No objective responses
best response SD, duration (advanced solid tumors; arm 3 erlotinib, QW schedule, patient with NSCLC): 7 months
best response SD, duration (advanced solid tumors; arm 3 erlotinib, patient with cervical cancer): 6 months
duration of SD, range (advanced solid tumors; in vivo): 1–13 months
median duration of SD (advanced solid tumors; in vivo): 7 months
patients with SD lasting at least 6 months (advanced solid tumors; in vivo): Six
duration of SD (advanced solid tumors; patients harboring PIK3CA mutations): 1.7 to 5.8 months
duration of SD (advanced solid tumors; patients with KRAS mutations): 1.4 to 3.0 months
IC50 (AKT3): 65 nM
inhibition of xenograft growth in combination [1]: synergised
